Experimental data: patent publication US20240132484A1, “BROAD SPECTRUM ANTIVIRAL COMPOUNDS TARGETING THE SKI COMPLEX” (priority 2020, published 2024)

System: Influenza virus
Assay: organism not typed
Format: cell-based, influenza A virus
Details: for Flu titer (pfu/ml): A549 cells; for Flu titer (pfu/ml) / Influenza virus titer, 10 μM / Influenza virus titer, 50 μM: plaque assay; for Avg PFU/ml: average of first and second experiment; for Influenza virus titer, 10 μM / Influenza virus titer, 50 μM: upper part of table (FIG. 5 data)

SMILES: COCCO[C@H]1[C@H](NC(=O)C(C)C)c2ccccc2C12CCN(C(=O)Cn1nc(C)cc1C)CC2 (relative stereo) [Compound 27046321, N-[(2R*,3R*)-1′-[(3,5-dimethyl-1H-pyrazol-1-yl)acetyl]-2-(2-methoxyethoxy)-2,3-dihydrospiro[indene-1,4′-piperidin]-3-yl]-2-methylpropanamide]
- Flu titer (pfu/ml) (1 μM compound): 110000 pfu/ml
- Flu titer (pfu/ml) (10 μM compound): 74000 pfu/ml
- Flu titer (pfu/ml) (50 μM compound): 87000 pfu/ml

SMILES: O=C(NC1CCCCCC1)c1cn[nH]c1-c1ccc2c(c1)OCCO2 [UMB98]
- 10 μM treatment, Average (10 μM treatment, average of replicates): 0
- 10 μM treatment (10 μM treatment, replicate 2): 0
- 50 μM treatment Average (50 μM compound, average of replicates): 0
- 50 μM treatment (50 μM compound, replicate 1, DMSO (0.5%) control run per batch): 0
- 50 μM treatment (50 μM compound, replicate 2): 0

SMILES: COc1ccc(NC(=O)c2ccccc2OCC(=O)NC2CCCCC2)c([N+](=O)[O-])c1 [Compound 7900806, 2-[2-(cyclohexylamino)-2-oxoethoxy]-N-(4-methoxy-2-nitrophenyl)benzamide]
- Flu titer (pfu/ml) (1 μM compound): 77000 pfu/ml
- Flu titer (pfu/ml) (10 μM compound): 60000 pfu/ml
- Flu titer (pfu/ml) (50 μM compound): 54000 pfu/ml

SMILES: Cc1ccc(-c2cc3c(c(OCC4CCCCO4)c2)OCCN(C(=O)C2CC2)C3)s1 (stereo not drawn) [Compound 43261887, 4-(cyclopropylcarbonyl)-7-(5-methyl-2-thienyl)-9-(tetrahydro-2H-pyran-2-ylmethoxy)-2,3,4,5-tetrahydro-1,4-benzoxazepine]
- Flu titer (pfu/ml) (1 μM compound): 60000 pfu/ml
- Flu titer (pfu/ml) (10 μM compound): 170000 pfu/ml
- Flu titer (pfu/ml) (50 μM compound): 30000 pfu/ml

SMILES: O=C(CN1CC(c2ccccc2)CC1=O)NCc1nnc(SCC2CCCCC2)n1-c1ccc(F)cc1 (stereo not drawn) [Compound 68125364, N-{[5-[(cyclohexylmethyl)thio]-4-(4-fluorophenyl)-4H-1,2,4-triazol-3-yl]methyl}-2-(2-oxo-4-phenyl-1-pyrrolidinyl)acetamide]
- Flu titer (pfu/ml) (1 μM compound): 72000 pfu/ml
- Flu titer (pfu/ml) (10 μM compound): 62000 pfu/ml
- Flu titer (pfu/ml) (50 μM compound): 79000 pfu/ml

SMILES: COc1ccc(CNC2Cc3ccccc3C2)c(OCC(O)CN2CCN(C)CC2)c1 (stereo not drawn) [Compound 18-3]
- first experiment (10 μM screen): 12000 PFU/ml
- second experiment (10 μM screen): 1000 PFU/ml
- Avg PFU/ml (10 μM screen): 6500 PFU/ml
- Influenza virus titer, 10 μM: 12000 PFU/virus/ml
- first experiment PFU/ml (50 μM screen): 1100 PFU/ml
- second experiment PFU/ml (50 μM screen): 1700 PFU/ml
- Avg PFU/ml (50 μM screen): 1400 PFU/ml
- Influenza virus titer, 50 μM: 1100 PFU/virus/ml

SMILES: COc1ccc(CNCCc2ccccc2F)c(OCC(O)CN2CCN(C)CC2)c1 (stereo not drawn) [Compound 18-lead, 1-[2-({[2-(2-fluorophenyl)ethyl]amino}methyl)-5-methoxyphenoxy]-3-(4-methyl-1-piperazinyl)-2-propanol]
- Influenza virus titer, 10 μM: 2000 PFU/virus/ml
- Influenza virus titer, 50 μM: 1400 PFU/virus/ml
